The values below come from PMC8092268, “Quorum Sensing in Streptococcus mutans Regulates Production of Tryglysin, a Novel RaS-RiPP Antimicrobial Compound” (mBio, 2021).

Entries after “also recorded” stand apart in the source; their conditions may differ. Marks after values point to notes of the source that are not given here. No end group written: not given here.

For test [1], the system named is Pshp-luxAB reporter (PdrA/SHP system). The test is described as follows: luciferase assay, chromosomal Pshp-luxAB reporter, wild type. The settings on record: CDM; for induction of Pshp-luxAB by tryglysins: 100 nM tryglysin.
In test [2] the test system is PwgkA-luxAB reporter (PdrA/SHP system). Description: luciferase assay, chromosomal PwgkA-luxAB reporter, wild type. The settings on record: CDM, 100 nM tryglysin.
Test [3] has as its system S. mutans UA159. The test is described as follows: cell chaining by microscopy. It is filed as cell-based, Streptococcus mutans. As to conditions: 100 nM. The procedure: For microscopic analysis of live cells exposed to tryglysins, S. mutans strains were inoculated and grown as described above in the “Luciferase assays with chromosomal reporters” section. […] For microscopic analysis of samples, 2 μl of live cells was taken at 2 h, 5 h, and 7 h after the addition of tryglysins and examined using an Olympus CKX53 inverted microscope with a 40× LCACHN-iPC infinity objective (LCACHN40XIPC; numerical aperture, 0.55) connected to a SC50 camera (Olympus). Images were processed using Olympus Stream Image Analysis software (Olympus).
For microscopic analysis of fixed cells exposed to tryglysin A, S. mutans strains were inoculated and grown as described above in the “Luciferase assays with chromosomal reporters” section. […] Supernatant was discarded, and cells were resuspended in 1 ml of fresh CDM. Resuspended cells were dropped into 10 ml of ice-cold 80% methanol and incubated for 1 h at room temperature. Afterwards, 800 μl of 4% paraformaldehyde was added to each methanol cell suspension. The mixture was incubated at room temperature for 5 min, and cells were spun down at 2,500 × g for 10 min. Supernatant was discarded, and cells were resuspended in 200 to 800 μl chilled GTE buffer (50 mM glucose, 20 mM Tris-HCl [pH 7.5], 1 mM EDTA). Cells were kept at 4°C overnight, and then 2 to 5 μl of cells in GTE buffer were placed on a microscope slide. Prepared slides were examined using an Olympus BX51 fluorescence microscope with a 100× UPLFLN objective (UPLFLN 100XO2; numerical aperture, 1.3) connected to an Olympus DP72 Single Chip color charge-coupled-device (CCD) camera. Images were processed using ImageJ 1.52i ([80]). […] Cells were classified as being in chains greater than three per chain or equal to or lesser than three per chain. The percentage of cells belonging to either of these categories was calculated as the number of cells in the category/total number of cells. […] For statistical analysis, data were analyzed via a one-way analysis of variance (ANOVA) with Dunnet’s multiple comparison posttest in Graph Pad Prism.

The subject of another test is L. lactis ATCC 11454. Description: growth inhibition by tryglysins. It is filed as cell-based, Lactococcus lactis. Set-up: key: −: not inhibited; +: mildly inhibited; ++: inhibited. The settings on record: 100 nM tryglysin, CDM, 37°C, 5% CO2, OD600 every hour; summary of growth curves. As to the method: (§1) For experiments to examine the effect of tryglysins, bacterial strains were grown from prestored glycerol stocks at −80°C and inoculated into THY broth. […] To monitor growth, OD600 was measured using a GENESYS 30 Vis spectrophotometer every hour.

A further test deals with S. oralis 108. Description: growth inhibition by tryglysins. The test is classed as cell-based, Streptococcus oralis. Also noted: key: −: not inhibited; +: mildly inhibited; ++: inhibited. As to conditions: 100 nM tryglysin, CDM, 37°C, 5% CO2, OD600 every hour; summary of growth curves. As to the method: as §1
The test system of a further test is S. agalactiae A909. Description: growth inhibition by tryglysins. It is filed as cell-based, Streptococcus agalactiae. Set-up: key: −: not inhibited; +: mildly inhibited; ++: inhibited. As to conditions: 100 nM tryglysin, CDM, 37°C, 5% CO2, OD600 every hour; summary of growth curves. As to the method: as §1
Another test relates to S. bovis JB1. Description: growth inhibition by tryglysins. As to conditions: 100 nM tryglysin, CDM, 37°C, 5% CO2, OD600 every hour; summary of growth curves. It is filed as cell-based, Streptococcus bovis. Set-up: key: −: not inhibited; +: mildly inhibited; ++: inhibited. The procedure: as §1
A further test deals with S. gordonii Challis Bt. The test is described as follows: growth inhibition by tryglysins. It is filed as cell-based, Streptococcus gordonii. Set-up: key: −: not inhibited; +: mildly inhibited; ++: inhibited. The settings on record: 100 nM tryglysin, CDM, 37°C, 5% CO2, OD600 every hour; summary of growth curves. The procedure: as §1
Another test concerns S. pyogenes NZ131. Description: growth inhibition by tryglysins. It is filed as cell-based, Streptococcus pyogenes. Set-up: key: −: not inhibited; +: mildly inhibited; ++: inhibited. The settings on record: 100 nM tryglysin, CDM, 37°C, 5% CO2, OD600 every hour; summary of growth curves. As to the method:
as §1

For test [4], the system named is S. mutans UA159. Description: CFU/ml assay (bacteriostatic or bactericidal). As to conditions: 100 nM, CDM; for recovery of viability: 24 h; for mode of action on viability: overall effect. The test is classed as cell-based, Streptococcus mutans. The procedure:
To perform CFU/milliliter assays, S. mutans was grown overnight, washed, and resuspended in CDM as outlined above in the “Luciferase assays with chromosomal reporters” section, with the exception that replicate tubes for harvest at each time point for both no-tryglysin and tryglysin-treated conditions were inoculated from bacterial cultures resuspended overnight. […] At this time point (0 h) and at 1, 2, 4, 6, 8 and 24 h after tryglysin addition, a set of no-tryglysin and tryglysin-treated tubes were harvested. At each time point, 100 μl from each tube in a set was harvested and diluted 1:10 successively in fresh THY. Dilutions from 10^−3 to 10^−6 (depending on the time point) were plated as follows: for each dilution, 10 μl was plated in triplicate on THY agar plates and allowed to drip vertically down the plate. This allowed for the spread of S. mutans colonies for later CFU/ml counting. After each dilution plating, plates were placed at 37°C and incubated for 48 h. […] After 2 days of incubation, colonies were counted for each time point, replicate, and condition, and the number of CFU/milliliter was calculated. Drip plates were considered to have accurate counts if colonies were between 10 and 150 colonies per drip. […] Statistical analysis was performed using a one-way ANOVA with Sidak’s multiple comparison posttest on Graph Pad Prism.

The subject of the next test is S. ferus DSM 20646. The test is described as follows: growth inhibition by tryglysins. As to conditions: CDM; for Level of inhibition: 100 nM tryglysin, 37°C, 5% CO2, OD600 every hour, summary of growth curves; for growth inhibition at 100 nM (titration): Fig. 6. Set-up: key to Level of inhibition: −: not inhibited; +: mildly inhibited; ++: inhibited. The test is classed as cell-based, Streptococcus ferus. The procedure:
as §1

The subject of a further test is S. mitis CCUG 31611. Description: growth inhibition by tryglysins. The test is classed as cell-based, Streptococcus mitis. Also noted: key: −: not inhibited; +: mildly inhibited; ++: inhibited. As to conditions: 100 nM tryglysin, CDM, 37°C, 5% CO2, OD600 every hour; summary of growth curves. The procedure:
as §1

The subject of the next test is S. pneumoniae D39. Description: growth inhibition by tryglysins. The test is classed as cell-based, Streptococcus pneumoniae. Set-up: key to Level of inhibition: −: not inhibited; +: mildly inhibited; ++: inhibited. The settings on record: for Level of inhibition: 100 nM tryglysin, CDM, 37°C, 5% CO2, OD600 every hour, summary of growth curves. As to the method:
as §1

In a further test the test system is E. faecalis V583. Description: growth inhibition by tryglysins. The test is classed as cell-based, Enterococcus faecalis. Set-up: key: −: not inhibited; +: mildly inhibited; ++: inhibited. As to conditions: 100 nM tryglysin, CDM, 37°C, 5% CO2, OD600 every hour; summary of growth curves. The procedure: as §1
Test [5] concerns S. mutans UA159. The test is described as follows: growth inhibition by tryglysins. The settings on record: for Level of inhibition: 100 nM tryglysin, 37°C, 5% CO2, OD600 every hour, summary of growth curves; for growth inhibition at 100 nM (titration): 9-h growth assay, Fig. 6. The test is classed as cell-based, Streptococcus mutans. Set-up: key to Level of inhibition: −: not inhibited; +: mildly inhibited; ++: inhibited. The procedure: as §1

Test [6] deals with S. mutans UA159. The test is described as follows: growth inhibition by UV-exposed tryglysin A. The test is classed as cell-based, Streptococcus mutans. The settings on record: short-wavelength UV light 1 h, 2 h or 4 h; 100 or 500 nM tryglysin A; CDM. The procedure:
To monitor growth, OD600 was measured using a GENESYS 30 Vis spectrophotometer every hour, and data were plotted using Graph Pad Prism 8.0.0.

Setting [7] is: 5 h, A: one-way ANOVA with Dunnet's posttest.
Setting [8] is: 7 h, A: one-way ANOVA with Dunnet's posttest.

Consider GLDWWSL [XIP, reference compound], for which the “induction of Pshp-luxAB reporter (cross talk)” value in test [1] (1 μM, Fig. S2C, performed twice) is listed as “did not observe any induction”.
Consider “VNCWGKH (also: sidechain bridge or staple (positions not given here)) [tryglysin B, 7-mer macrocyclic peptide VNCWGKH carrying the tetrahydro[5,6]benzindole modification, predicted product of the S. mutans wgk cluster]”, for which, in [2], the “induction of PwgkA-luxAB by tryglysins” value is on record as “do not induce the system”. Moreover, the cell chaining result in the test on S. mutans UA159 [3] (2 h) is “small chains were observed”; in the test with S. mutans UA159 [3] (setting [7]), “appeared to do the same”; in the test with S. mutans UA159 [3] (setting [8]), “appeared to do the same”. Further, the Level of inhibition result was “−” in the test on L. lactis ATCC 11454; “++” with S. oralis 108; “+” in the test with S. agalactiae A909; “+” in the test with S. bovis JB1; “+” with S. gordonii Challis Bt; “−” in the test with S. pyogenes NZ131. Further, the Level of inhibition result was “++” with S. ferus DSM 20646; “++” in the test with S. mitis CCUG 31611; “++” in the test with S. pneumoniae D39; “−” with E. faecalis V583; “++” with S. mutans UA159 [5] (CDM). The recovery of viability entry in the test with S. mutans UA159 [4] was “treated cells were able to overcome this by 24 h”. Also, the “mode of action on viability” value in the test with S. mutans UA159 [4] is recorded as “bacteriostatic activities rather than bactericidal”. The “growth inhibition at 100 nM (titration)” value in the test on S. ferus DSM 20646 and with S. mutans UA159 [5] (CDM) was “substantially inhibited” each time. For the same substance, the “optical density of cultures parallel to CFU assay” value with S. mutans UA159 [5] is “A proportionate inhibition and restoration of growth were observable by optical density measurements”. The “concentration required for complete growth inhibition” value in the test with S. mutans UA159 [5] (CDM, over the 9-h growth assay, Fig. 6A) was determined as 1 µM. Also, the “induction of Pshp-luxAB by tryglysins” value in test [1] is “do not induce the system”.
On to “VNSWGKH (also: sidechain bridge or staple (positions not given here)) [tryglysin A, macrocyclic 7-mer RiPP from S. ferus, VNSWGKH with tetrahydro[5,6]benzindole modification]”, for which, in test [2], the “induction of PwgkA-luxAB by tryglysins” value is on record as “do not induce the system”. Also, the cell chaining entry with S. mutans UA159 [3] (2 h) was “small chains were observed”; in the test on S. mutans UA159 [3] (setting [7]), “significantly increased”; with S. mutans UA159 [3] (setting [8]), “significantly increased”. The Level of inhibition result in the test with L. lactis ATCC 11454 is “−”; in the test with S. oralis 108, “++”; with S. agalactiae A909 it was “++”; with S. bovis JB1 it was “+”; in the test with S. gordonii Challis Bt, “+”; in the test with S. pyogenes NZ131, “−”. The Level of inhibition result is “++” in the test on S. ferus DSM 20646; “++” in the test with S. mitis CCUG 31611; “++^b” with S. pneumoniae D39; “−” in the test with E. faecalis V583; “++” with S. mutans UA159 [5] (CDM). The recovery of viability entry in the test on S. mutans UA159 [4] is given as “treated cells were able to overcome this by 24 h”. In addition, the “mode of action on viability” value with S. mutans UA159 [4] is “bacteriostatic activities rather than bactericidal”. Also, the “growth inhibition at 100 nM (titration)” value in the test on S. ferus DSM 20646 and in the test with S. mutans UA159 [5] (CDM) was “substantially inhibited” each time. Moreover, in the test on S. mutans UA159 [6], the “inhibitory activity after UV exposure” value was “Proportionate decrease of inhibitory activity was observed; also recorded: inhibitory activity can be inactivated by exposure to UV light”. Also, the reproducibility of inhibition entry in the test with S. pneumoniae D39 (100 nM, three experiments) is “b For S. pneumoniae D39, two experiments showed inhibition with 100 nM tryglysin A, one experiment did not”. Further, in the test with S. mutans UA159 [5], the “optical density of cultures parallel to CFU assay” value is “A proportionate inhibition and restoration of growth were observable by optical density measurements”. For the same substance, in [1], the “induction of Pshp-luxAB by tryglysins” value is recorded as “do not induce the system”.
